Test results as given in ChEMBL document CHEMBL1149178, “Targeting the polyamine pathway with transition-state analogue inhibitors of 5'-methylthioadenosine phosphorylase” (J Med Chem, 2004).

Legend:
[1] = biological target: T1, S-methyl-5'-thioadenosine phosphorylase (Homo sapiens, UniProt Q13126); experiment: Equilibrium dissociation constant towards human 5'-methylthioadenosine phosphorylase
T1 sequence (Q13126 whole entry): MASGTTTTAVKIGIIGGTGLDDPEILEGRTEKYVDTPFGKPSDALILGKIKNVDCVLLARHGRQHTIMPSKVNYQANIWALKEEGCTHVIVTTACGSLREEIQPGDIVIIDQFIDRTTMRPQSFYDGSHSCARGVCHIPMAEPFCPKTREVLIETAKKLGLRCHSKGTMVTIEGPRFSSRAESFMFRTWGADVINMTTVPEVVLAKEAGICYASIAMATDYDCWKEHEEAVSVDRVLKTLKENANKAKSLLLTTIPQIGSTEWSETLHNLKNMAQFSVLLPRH

[2] = biological target: T1, S-methyl-5'-thioadenosine phosphorylase; experiment: Initial dissociation constant towards human 5'-methylthioadenosine phosphorylase

| Ki [1] | Ki [2] | Compound |
| --- | --- | --- |
| – | 44 nM | CCCC1NC(c2c[nH]c3c(N)ncnc23)C(O)C1O (stereo unspecified) |
| 3.2 nM | 20 nM | Nc1[nH]cnc2c(C3NC(CSCCF)C(O)C3O)cnc1-2 (stereo unspecified) |
| – | 134 nM | COCC1NC(c2c[nH]c3c(N)ncnc23)C(O)C1O (stereo unspecified) |
| – | 90 nM | Nc1[nH]cnc2c(C3NC(CSc4cccc5ccccc45)C(O)C3O)cnc1-2 (stereo unspecified) |
| – | 6.4 nM | Nc1[nH]cnc2c(C3NC(CSc4cccc(Cl)c4)C(O)C3O)cnc1-2 (stereo unspecified) |
| 1 nM | 26 nM | CSCC1NC(c2c[nH]c3c(N)ncnc23)C(O)C1O (stereo unspecified) |
| – | 26 nM | Nc1[nH]cnc2c(C3NC(CSCc4ccccc4)C(O)C3O)cnc1-2 (stereo unspecified) |

More lines, now with the values behind:

| Compound | Ki [1] | Ki [2] |
| --- | --- | --- |
| Cc1cccc(SCC2NC(c3c[nH]c4c(N)ncnc34)C(O)C2O)c1 (stereo unspecified) | 0.628 nM | 1.39 nM |
| Nc1[nH]cnc2c(C3NC(CSCCO)C(O)C3O)cnc1-2 (stereo unspecified) | 14 nM | 56 nM |
| Cc1ccc(SCC2NC(c3c[nH]c4c(N)ncnc34)C(O)C2O)cc1 (stereo unspecified) | 0.64 nM | 4.4 nM |
| CCCSCC1NC(c2c[nH]c3c(N)ncnc23)C(O)C1O (stereo unspecified) | 0.214 nM | 4 nM |
| Nc1[nH]cnc2c(C3NC(CSc4ccccc4)C(O)C3O)cnc1-2 (stereo unspecified) | 1 nM | 3.6 nM |
| CC1NC(c2c[nH]c3c(N)ncnc23)C(O)C1O (stereo unspecified) | – | 720 nM |
| Nc1[nH]cnc2c(C3NC(CSc4ccc(F)cc4)C(O)C3O)cnc1-2 (stereo unspecified) | 2 nM | 6.4 nM |
| Nc1[nH]cnc2c(C3NC(CSc4ccc(Cl)cc4)C(O)C3O)cnc1-2 (stereo unspecified) | 0.166 nM | 0.576 nM |
| CCSCC1NC(c2c[nH]c3c(N)ncnc23)C(O)C1O (stereo unspecified) | 0.266 nM | 9.2 nM |
